Measurements reported in PMC10566475, “A cell-active cyclic peptide targeting the Nrf2/Keap1 protein–protein interaction” (Chemical Science, 2023).
Read-outs that look alike come from different tables or passages of the source. *1 amine or outer side, *2 acyl side, *3 side chain or, on linkers, in order; H or OH if unused. Where a SMILES comes first, the peptide text is derived from it. Bridges are numbered along the chain shown (N, C = ends). X1 = CN(CC(=O)O)c1nc(CC[*:1])cc(CC[*:2])n1; mXylylene = c1cc(C[*:1])cc(C[*:2])c1; CH2COCH2 = O=C(C[*:1])C[*:2]; CH2 = C([*:1])[*:2]

Tests used:
[1] = molecular target: T1, human Keap1 Kelch domain (A321-T609) (Homo sapiens, UniProt Q14145); test: Surface plasmon resonance (SPR) direct binding assay, immobilised Keap1 Kelch domain
T1 construct: human Keap1 Kelch domain (A321-T609) fused with N-terminal 6x His-tag; 6xHis (N); made in house
Excerpt: (§1) We based the design of our Nrf2-like cyclic peptides around the amino acid sequence of the ETGE motif (namely 12-mer ^73[…]^84L) and SAR studies reported in the literature.[9,10,12,14] The […] motif is known to adopt a beta-turn conformation upon binding to Keap1. Residues Q73-Q75 and L85 stabilise the bound conformation, L76-D77 and E79-G81 bind deep into the pocket with E79 and E82 forming electrostatic interactions with Keap1 and D77 and T80 stabilising the beta-turn via H-bonds with E78 not contributing to the binding. […] The ability of the cyclic peptides to bind to the Kelch domain of Keap1 was evaluated using surface plasma resonance (SPR), where the Kelch domain is immobilised onto a SPR sensor chip. Additionally, we assessed the ability of the peptides to inhibit the PPI between Nrf2 and the Kelch domain of Keap1 using a time-resolved FRET (TR-FRET) assay. Here, the IC50 for inhibition of the interaction between the human Keap1 Kelch domain and an Nrf2-ETGE peptide is measured.
(§2) Surface Plasmon Resonance (SPR)
(§3) Peptide affinities to the Kelch domain of Keap1 is determined in a direct binding assay using 8K surface plasmon resonance (SPR) biosensor (Cytiva) at 20°C. Immobilization of Keap1 Kelch domain on a CM5 sensor chip (Cytiva) is performed using standard amine coupling procedure. The surface is washed with 10mM NaOH, 1M NaCl before activated with EDC/NHS (Cytiva), followed by immobilization of human Keap1 Kelch domain (A321-T609) fused with N-terminal 6x His-tag7 (in 10 mM MES, pH=6.4).
(§4) Finally, the surface is deactivated by Ethanolamine. Immobilization levels are typically 5000-6000 RU.
(§5) The reference spot is treated as described, omitting the injection of Keap1. Compound concentration series are injected over the immobilized protein in increasing concentrations using single cycle kinetics (SCK) in running buffer (10 mM HEPES, 150 mM NaCl, 0.05% Tween20, 1 mM TCEP, pH 7.4). A 1:1 Langmuir interaction model is fitted to the experimental traces, enabling determination of kon, koff and […]
(§6) In the time-resolved Förster resonance energy transfer (TR-FRET) assay8 the IC50 of inhibitors which […]
(§7) are determined. The TR-FRET is measured between a Tb-labelled mAb (Anti—6-His, Tb cryptate Gold, CisBio 61H12TLB) that binds to Keap 1 Kelch domain and d2-labelled SA-biotin-peptide.
(§8) The assay was performed in 384-well white low-volume, medium binding plates (Greiner Bio One, Austria) in 20 mM HEPES pH 7.5, 150 mM NaCl, 2 mM GSH (Sigma-Aldrich, USA),1mM EDTA (Sigma-Aldrich, USA), and 0.01% Pluronic F127 (MilliporeSigma, USA), with a final reaction volume of 10 µL.
(§9) To determine the ability of synthesized peptide to inhibit PPI between the Keap1 Kelch domain and Nrf2, 1nM purified human Keap1 Kelch domain (A321-T609) fused with N-terminal 6x His-tag, 5 nM biotinylated Nrf2 peptide ([…], Genescript, USA), d2-labeled streptavidin (Revvity, USA), and […] anti-His monoclonal antibody tagged with terbium cryptate (Revvity, USA), were incubated in the presence of varying concentrations of investigated peptides for 3 h at room […]
(§10) 7 Li X, Zhang D, Hannink M, Beamer LJ. Crystallization and initial crystallographic analysis of the Kelch domain from human Keap1. Acta
(§11) 8 S. Lee, D. Ali Abed, L. J. Beamer, L. Hu, Development of a Homogeneous Time-Resolved Fluorescence Resonance Energy Transfer (TR-

[2] = molecular target: T2, interaction between the human Keap1 Kelch domain and an Nrf2-ETGE peptide (Homo sapiens, UniProt Q14145); test: Keap1-Nrf2 TR-FRET (HTRF) assay; format: binding
T2 construct: 1nM purified human Keap1 Kelch domain (A321-T609) fused with N-terminal 6x His-tag; made in house
Excerpt: as §1, §2, §3, §4, §5, §6, §7, §8, §9, §10, §11
Following the incubation, the PHERAstar FSX […] microplate reader was used to measure the acceptor and donor emissions at 665 nm and 620 nm, respectively. The acceptor/donor ratio was used to calculate relative energy transfer. Data was normalized by two-point normalization using neutral and inhibitor controls (neutral control: DMSO, inhibitor control: 0.1nM 2-[[4-[carboxymethyl-(4-methoxyphenyl)sulfonylamino]naphthale n-1-yl]-(4-methoxyphenyl)sulfonylamino]acetic acid; […]
parameter logistic fit and IC50 values were calculated using Genedata screener software (Genedata, […]

[3] = Table 1, geometric mean ± sd of at least 3 independent repeats unless stated, 20°C
[4] = Table 1, single cycle kinetics, 1:1 Langmuir model
[5] = Table 1, geometric mean ± sd of at least 3 independent repeats unless stated, read-out: TR-FRET IC50

T2 sequence (Q14145 321-609): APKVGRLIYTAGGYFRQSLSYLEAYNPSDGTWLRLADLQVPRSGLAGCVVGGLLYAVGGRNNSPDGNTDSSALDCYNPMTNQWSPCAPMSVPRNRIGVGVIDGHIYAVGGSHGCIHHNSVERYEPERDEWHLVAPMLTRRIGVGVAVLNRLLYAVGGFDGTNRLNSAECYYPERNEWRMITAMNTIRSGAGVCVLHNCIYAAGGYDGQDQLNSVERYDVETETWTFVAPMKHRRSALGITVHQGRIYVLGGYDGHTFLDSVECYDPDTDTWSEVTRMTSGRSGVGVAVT
T1 sequence (Q14145 321-609): as above

| Compound | Kd [1, 3] | koff [1, 4] | kon [1, 4] | IC50 [2, 5] | koff ([1]; Table 2) | kon ([1]; Table 2) | Kd ([1]; Table 2, geometric mean ± sd of at least two independent repeats) | IC50 ([2]; Table 2, IC50, minimum of three repeats, read-out: TR-FRET) |
| --- | --- | --- | --- | --- | --- | --- | --- | --- |
| CC(=O)N[C@@H](CC(C)C)C(=O)N[C@@H](CCC(N)=O)C(=O)N[C@H]1CSCC(=O)CSC[C@@H](C(=O)N[C@@H](CC(C)C)C(N)=O)NC(=O)[C@H](CCC(=O)O)NC(=O)CNC(=O)[C@H]([C@@H](C)O)NC(=O)[C@H](CCC(=O)O)NC(=O)[C@@H]2CCCN2C(=O)[C@H](CC(=O)O)NC1=O [Peptide P2-B] (Ac-LQCDPETGECL-NH2; linker 3-10 via CH2COCH2) | 97 ± 1.4 nM | 0.028 s⁻¹ | 350000 M⁻¹ s⁻¹ | 9.8 ± 1.2 nM |  |  |  |  |
| CC(=O)N[C@@H](CC(C)C)C(=O)N[C@@H](CCC(N)=O)C(=O)N[C@@H](CS)C(=O)N[C@@H](CC(=O)O)C(=O)N1CCC[C@H]1C(=O)N[C@@H](CCC(=O)O)C(=O)N[C@H](C(=O)NCC(=O)N[C@@H](CCC(=O)O)C(=O)N[C@@H](CS)C(=O)N[C@@H](CC(C)C)C(N)=O)[C@@H](C)O [Peptide P2] (Ac-LQCDPETGECL-NH2) | 75 nM |  |  |  |  |  |  |  |
| CC(=O)N[C@@H](CS)C(=O)N[C@@H](CC(=O)O)C(=O)N1CCC[C@H]1C(=O)N[C@@H](CCC(=O)O)C(=O)N[C@H](C(=O)NCC(=O)N[C@@H](CCC(=O)O)C(=O)N[C@@H](CS)C(=O)N[C@@H](CC(C)C)C(N)=O)[C@@H](C)O [Peptide P8] |  |  |  |  | 0.0055 s⁻¹ | 95000 M⁻¹ s⁻¹ | 56 ± 1.3 nM | 4.9 ± 1.2 nM |
| CC(=O)N[C@H]1CSCc2cccc(c2)CSC[C@@H](C(=O)N[C@@H](CC(C)C)C(N)=O)NC(=O)[C@H](CCC(=O)O)NC(=O)CNC(=O)[C@H]([C@@H](C)O)NC(=O)[C@H](CCC(=O)O)NC(=O)[C@@H]2CCCN2C(=O)[C@H](CC(=O)O)NC(=O)[C@H](CC(C)C)NC(=O)[C@H](CCC(N)=O)NC1=O [Peptide P1-C] (Ac-CQLDPETGECL-NH2; linker 1-10 via mXylylene) | 17 ± 1.2 nM | 0.0078 s⁻¹ | 470000 M⁻¹ s⁻¹ | 2.1 nM |  |  |  |  |
| CC(=O)N[C@H]1CSCC(=O)CSC[C@@H](C(=O)N[C@@H](CC(C)C)C(N)=O)NC(=O)[C@H](CCC(=O)O)NC(=O)CNC(=O)[C@H]([C@@H](C)O)NC(=O)[C@H](CCC(=O)O)NC(=O)[C@@H]2CCCN2C(=O)[C@H](CC(=O)O)NC(=O)[C@H](CC(C)C)NC(=O)[C@H](CCC(N)=O)NC1=O [Peptide P1-B] (Ac-CQLDPETGECL-NH2; linker 1-10 via CH2COCH2) | 27 ± 1.3 nM | 0.0087 s⁻¹ | 410000 M⁻¹ s⁻¹ | 4.4 ± 1.4 nM |  |  |  |  |
| CC(=O)N[C@H]1CSCSC[C@@H](C(=O)N[C@@H](CC(C)C)C(N)=O)NC(=O)[C@H](CCC(=O)O)NC(=O)CNC(=O)[C@H]([C@@H](C)O)NC(=O)[C@H](CCC(=O)O)NC(=O)[C@@H]2CCCN2C(=O)[C@H](CC(=O)O)NC(=O)[C@H](CC(C)C)NC(=O)[C@H](CCC(N)=O)NC1=O [Peptide P1-A] (Ac-CQLDPETGECL-NH2; linker 1-10 via CH2) | 19 ± 1.4 nM | 0.0073 s⁻¹ | 480000 M⁻¹ s⁻¹ | 2.9 ± 1.7 nM |  |  |  |  |
| CC(=O)N[C@H]1CSCCc2cc(nc(N(C)CC(=O)O)n2)CCSC[C@@H](C(=O)N[C@@H](CC(C)C)C(N)=O)NC(=O)[C@H](CCC(=O)O)NC(=O)CNC(=O)[C@H]([C@@H](C)O)NC(=O)[C@H](CCC(=O)O)NC(=O)[C@@H]2CCCN2C(=O)[C@H](CC(=O)O)NC(=O)[C@H](CC(C)C)NC(=O)[C@H](CCC(N)=O)NC(=O)[C@H](CC(C)C)NC1=O [Peptide P3-D] (Ac-CLQLDPETGECL-NH2; linker 1-11 via X1) | 22 ± 1.3 nM | 0.0028 s⁻¹ | 140000 M⁻¹ s⁻¹ | 2.4 ± 1.3 nM |  |  |  |  |
| CC(=O)N[C@@H](CS)C(=O)N[C@@H](CC(C)C)C(=O)N[C@@H](CCC(N)=O)C(=O)N[C@@H](CC(C)C)C(=O)N[C@@H](CC(=O)O)C(=O)N1CCC[C@H]1C(=O)N[C@@H](CCC(=O)O)C(=O)N[C@H](C(=O)NCC(=O)N[C@@H](CCC(=O)O)C(=O)N[C@@H](CS)C(=O)N[C@@H](CC(C)C)C(N)=O)[C@@H](C)O [Peptide P3] (Ac-CLQLDPETGECL-NH2) | 19 ± 1.8 nM | 0.0049 s⁻¹ | 180000 M⁻¹ s⁻¹ | 5 ± 1.5 nM |  |  |  |  |
